In US20180201592A1, “2-AMINO-1,3,4-THIADIAZINE AND 2-AMINO-1,3,4-OXADIAZINE BASED ANTIFUNGAL AGENTS” (F2G Limited, priority 2015, published 2018):

What was measured:
Conditions in all cases: banded MIC grade
A. terreus 49 [1] = experiment: Minimum inhibitory concentration, YAG medium; type: cell-based, Aspergillus terreus
Outline: (§1)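 MIC values (mg/L) were derived from well optical density at 485 nm. Plates with Aspergillus spores and doubling aqueous dilutions of compound (5 mg/mL DMSO stock) had been incubated at 35° C for 24 hrs.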

A. fumigatus 210 [2] = experiment: Minimum inhibitory concentration, RPMI medium; type: cell-based
Description: (§2) Between 1 and 5 mgs of compound were accurately weighed out into a sterile Eppendorf tube. The compound was dissolved in DMSO to give a solution containing 5 mg/mL. Tubes were stored at −20° C. until required.
(§3) On the day of testing thawed solutions were vortex mixed to ensure homogeneity. 30 μL of solution was removed and added to 570 μL of sterile water in a separate sterile Eppendorf. The thoroughly mixed solution was used to prepare a series of doubling dilutions in water, in a deep well plate. Thirteen replicate plates were prepared using a Minitrak by aspirating 20 μL from each well into eleven clear polystyrene 96 well plates.
(§4) Assays were also performed in RPMI medium (Roswell Park Memorial Media 1640). To perform MIC tests in this medium, dilutions of compounds are prepared in microtitre plates as described above. Fungal strains to be tested are grown and harvested in an identical manner to that described above, and each organism suspension was diluted in RPMI medium, typically containing 2% glucose and 0.135 M MOPS buffer (pH 7.0) to 0.5-2×10^4cfu/mL, rather than in YAG medium. 80 μL of an organism suspension was added to each well of the plate containing drug dilutions.
(§5) This produced MIC plates with a drug range 50-0.05 mg/L and organism inocula of 1-2×10^4 cfu/mL. All plates were incubated for 24-48 hrs at 35° C. Growth was assessed by monitoring the optical density at 485 nm for each well. The MIC of a compound is the lowest drug concentration that inhibits growth of an organism by >80% compared with a drug free control. The following organisms were tested: C. albicans, C. parapsilosis, C. tropicalis, C. glabrata, C. krusei, A. niger, A. fumigatus, A. terreus, A. flavus, A. terreus 49, and A. fumigatus 210.

A. fumigatus = experiment: Minimum inhibitory concentration, RPMI medium; type: cell-based
Description: as §2, §3, §4, §5

C. albicans = experiment: Minimum inhibitory concentration, RPMI medium; type: cell-based
Outline: (§6)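 Thawed 5 mg/mL DMSO stocks are vortexed, diluted into sterile water and serially halved in water. The MIC test is then run in RPMI 1640 at 35° C for 24-48 hrs. Wells are read at OD 485 nm.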

A. terreus = experiment: Minimum inhibitory concentration, RPMI medium; type: cell-based
Outline: as §6

C. tropicalis = experiment: Minimum inhibitory concentration, RPMI medium; type: cell-based
Outline: as §6

C. glabrata = experiment: Minimum inhibitory concentration, RPMI medium; type: cell-based
Outline: as §6

A. flavus = experiment: Minimum inhibitory concentration, RPMI medium; type: cell-based
Outline: as §6

A. niger = experiment: Minimum inhibitory concentration, RPMI medium; type: cell-based
Outline: as §6

C. parapsilosis = experiment: Minimum inhibitory concentration, RPMI medium; type: cell-based
Outline: as §6

A. terreus 49 [3] = experiment: Minimum inhibitory concentration, RPMI medium; type: cell-based
Outline: as §6

C. krusei = experiment: Minimum inhibitory concentration, RPMI medium; type: cell-based
Outline: as §6

Aspergillus flavus = experiment: Minimum inhibitory concentration, YAG medium; type: cell-based
Outline: as §1

Aspergillus niger = experiment: Minimum inhibitory concentration, YAG medium; type: cell-based
Outline: as §1

Aspergillus terreus = experiment: Minimum inhibitory concentration, YAG medium; type: cell-based
Outline: as §1

A. fumigatus 210 [4] = experiment: Minimum inhibitory concentration, YAG medium; type: cell-based, Aspergillus fumigatus
Outline: (§7)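 MICs (mg/L) reflect >70% inhibition of OD485 growth versus untreated control after 24 hrs at 35° C in YAG medium, spore inoculum 1-2×10^4 cfu/mL, drug range 50-0.05 mg/L.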

Aspergillus fumigatus = experiment: Minimum inhibitory concentration, YAG medium; type: cell-based
Outline: as §7

SMILES	MIC grade, A. TERREUS 49, YAG media (A. terreus 49 [1])	MIC grade, A. FUMIGATUS 210, RPMI media (A. fumigatus 210 [2])	MIC grade, A. FUMIGATUS, RPMI media (A. fumigatus)	MIC grade, C. ALBICANS, RPMI media (C. albicans)	MIC grade, A. TERREUS, RPMI media (A. terreus)	MIC grade, C. TROPICALIS, RPMI media (C. tropicalis)	MIC grade, C. GLABRATA, RPMI media (C. glabrata)	MIC grade, A. FLAVUS, RPMI media (A. flavus)	MIC grade, A. NIGER, RPMI media (A. niger)	MIC grade, C. PARAPSILOSIS, RPMI media (C. parapsilosis)	MIC grade, A. TERREUS 49, RPMI media (A. terreus 49 [3])	MIC grade, C. KRUSEI, RPMI media (C. krusei)	MIC grade, A. FLAVUS, YAG media (Aspergillus flavus)	MIC grade, A. NIGER, YAG media (Aspergillus niger)	MIC grade, A. TERREUS, YAG media (Aspergillus terreus)	MIC grade, A. FUMIGATUS 210, YAG media (A. fumigatus 210 [4])	MIC grade, A. FUMIGATUS, YAG media (Aspergillus fumigatus)
NC1=NN=C(CCCCOCc2cc(Cl)cc(Cl)c2)CS1	3 (3: 0.2-1 mg/L)	1 (1: ≥20 mg/L)	2 (2: 5-20 mg/L)	2 (2: 5-20 mg/L)	2 (2: 5-20 mg/L)	2 (2: 5-20 mg/L)	2 (2: 5-20 mg/L)	2 (2: 5-20 mg/L)	2 (2: 5-20 mg/L)	3 (3: 1-5 mg/L)	2 (2: 5-20 mg/L)	2 (2: 5-20 mg/L)	4 (4: <0.2 mg/L)	3 (3: 0.2-1 mg/L)	3 (3: 0.2-1 mg/L)	2 (2: 1-5 mg/L)	3 (3: 0.2-1 mg/L)
NC1=NN=C(CCCCOCc2cccc(C(F)(F)F)c2)CS1	2 (2: 1-5 mg/L)	1 (1: ≥20 mg/L)	2 (2: 5-20 mg/L)	3 (3: 1-5 mg/L)	2 (2: 5-20 mg/L)	2 (2: 5-20 mg/L)	1 (1: ≥20 mg/L)	2 (2: 5-20 mg/L)	2 (2: 5-20 mg/L)	2 (2: 5-20 mg/L)	2 (2: 5-20 mg/L)	2 (2: 5-20 mg/L)	3 (3: 0.2-1 mg/L)	3 (3: 0.2-1 mg/L)	2 (2: 1-5 mg/L)	3 (3: 0.2-1 mg/L)	3 (3: 0.2-1 mg/L)
CCCCc1ccc(COCCCCC2=NN=C(N)SC2)cc1	2 (2: 1-5 mg/L)	1 (1: ≥20 mg/L)	1 (1: ≥20 mg/L)	2 (2: 5-20 mg/L)	1 (1: ≥20 mg/L)	2 (2: 5-20 mg/L)	2 (2: 5-20 mg/L)	2 (2: 5-20 mg/L)	2 (2: 5-20 mg/L)	3 (3: 1-5 mg/L)	1 (1: ≥20 mg/L)	3 (3: 1-5 mg/L)	3 (3: 0.2-1 mg/L)	3 (3: 0.2-1 mg/L)	2 (2: 1-5 mg/L)	1 (1: ≥5 mg/L)	1 (1: ≥5 mg/L)
